Literature values in patent US20090155355A1, “Particles in a capsule” (Multi Formulations Ltd., priority 2007, published 2009).
Entries after “also recorded” stand apart in the source; their conditions may differ.

What was measured:
[1] = in vivo
[2] = oral, single 400 mg dose, humans
[3] = combination with acetaminophen or ibuprofen

For CC(=O)Nc1ccc(O)cc1 [Acetaminophen], the plasma half-life [1] is listed as “about 2 hrs” and the “time of peak plasma levels” value [1] is listed as 0.5 to 2 h.

In the case of CC(C)Cc1ccc(C(C)C(=O)O)cc1 (stereo not drawn) [ibuprofen, Ibuprofen], the “time to maximum plasma concentration” value [2] is listed as “about 1.3 hrs”.

For Cn1c(=O)c2c(ncn2C)n(C)c1=O [caffeine, Caffeine], the effect on analgesics [3] is given as “enhance and prolong the effects of acetaminophen; also recorded: enhance the analgesic effects of ibuprofen”, the “half-life (mean time)” value (highly variable) is given as “about 5 hrs” and the “time to peak levels” value (in vivo) is given as “about 1 hr”.
